Measured values: US20230203060A1 (GENFLEET THERAPEUTICS (SHANGHAI) INC., priority 2020, published 2023)

Legend:
[1] = system: KRAS G12C mutant MIA PaCa-2 cells; test: Cell proliferation inhibition experiment, 3D spheroid, CellTiter-Glo, MIA PaCa-2; format: cell-based, human; settings: Homo sapiens, MIA PaCa-2, 120 h, 3D cell model in 384-well spheroid plate, 5 days, CellTiter-Glo; read-out: MIA-PaCa2 IC50
Summary of the method: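 Luminescent ATP read-out (CellTiter-Glo) after 5-day compound treatment of spheroids formed overnight from 200 MIA PaCa-2 cells/well; compounds in 3.16-fold series, 0.1% DMSO final. IC50 derived by four-parameter fit of percent inhibition, normalized to DMSO control and medium blank.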

KRAS G12C = biological target: T1, KRAS G12C (Homo sapiens, UniProt P01116, G12C); test: KRAS G12C NEA-HTRF experiment (SOS1-catalyzed displacement of GDP by GTP); format: biochemical
T1 construct: purchased Reactionbiology
T1 sequence (P01116 1-188 isoform P01116-2 G12C): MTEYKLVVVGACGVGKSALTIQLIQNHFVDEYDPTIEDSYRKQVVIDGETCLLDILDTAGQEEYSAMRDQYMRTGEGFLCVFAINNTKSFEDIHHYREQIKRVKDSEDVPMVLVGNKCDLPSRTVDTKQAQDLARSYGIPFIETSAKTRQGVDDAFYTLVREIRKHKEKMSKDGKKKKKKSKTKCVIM
Summary of the method: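 His-tagged KRAS G12C preloaded with DY647-GDP was preincubated 15 min at 20 °C with compound, then exchanged with SOS1 (0.2 μM working solution) and GTP (200 μM working solution) for 2 h at 20 °C in the dark. HTRF 665/615 nm ratio with anti-His-Tb was normalised to T0 and no-compound controls; IC50 by four-parameter fit.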

SMILES	IC50 [1] [nM]	IC50 (KRAS G12C) [nM]
C=CC(=O)N1CCN2C(=O)c3c(N4C[C@@H](N5CC(OC)C5)CC4(C)C)nc(-c4ccccc4F)c(Cl)c3OC[C@H]2C1 [Z479-1, (R)-8-acryloyl-4-chloro-3-(2-fluorophenyl)-1-((S)-4-(3-methoxyazetidin-1-yl)-2,2-dimethylpyrrolidin-1-yl)-6,6a,7,8,9,10-hexahydro-12H-pyrazino[2,1-c]pyrido[3,4-f][1,4]oxazepin-12-one]	15	65.2
C=CC(=O)N1CCN2C(=O)c3c(N4C[C@@H](N(C)CCF)CC4(C)C)nc(-c4ccccc4F)c(Cl)c3OC[C@H]2C1 (single isomer, unassigned) [Z660-1]	7.7	11.3
C=CC(=O)N1CCN2C(=O)c3c(N4C[C@@H](N(C)C)CC4(C)C)nc(-c4cccc(F)c4F)c(Cl)c3OC[C@H]2C1 [Z473-1, (R)-8-acryloyl-4-chloro-3-(2,3-difluorophenyl)-1-((S)-4-(dimethylamino)-2,2-dimethylpyrrolidin-1-yl)-6,6a,7,8,9,10-hexahydro-12H-pyrazino[2,1-c]pyrido[3,4-f][1,4]oxazepin-12-one]		105
C=CC(=O)N1CCN2C(=O)c3c(N4C[C@H](N5CCN(C)CC5)CC4(C)C)nc(-c4ccccc4F)c(Cl)c3OC[C@H]2C1 (single isomer, unassigned) [Z454-2]	16.8	35.5
C=CC(=O)N1CCN2C(=O)c3c(N4C[C@@H](N5CCC5)CC4(C)C)nc(-c4ccccc4F)c(Cl)c3OC[C@H]2C1 (single isomer, unassigned) [Z471-1]	42	73
C=CC(=O)N1CCN2C(=O)c3c(N4C[C@@H](N(C)C)CC4(C)C)nc(-c4c(F)ccc(F)c4O)c(Cl)c3OC[C@H]2C1 [Z475-1, (6aR)-8-acryloyl-4-chloro-3-(3,6-difluoro-2-hydroxyphenyl)-1-((S)-4-(dimethylamino)-2,2-dimethylpyrrolidin-1-yl)-6,6a,7,8,9,10-hexahydro-12H-pyrazino[2,1-c]pyrido[3,4-f][1,4]oxazepin-12-one]	5	22.5
C=CC(=O)N1CCN2C(=O)c3c(N4C[C@H](N5CC(F)(F)C5)CC4(C)C)nc(-c4ccccc4F)c(Cl)c3OC[C@H]2C1 (single isomer, unassigned) [Z525-1]	478	365
C=CC(=O)N1CCN2C(=O)c3c(N4C[C@@H](O)CC4(C)C)nc(-c4ccccc4F)c(F)c3OC[C@H]2C1 (single isomer, unassigned) [Z408-1]	79.3	159
C=CC(=O)N1CCN2C(=O)c3c(N4C[C@@H](N5CCN(C)CC5)CC4(C)C)nc(-c4c(O)cccc4F)c(Cl)c3OC[C@H]2C1 (single isomer, unassigned) [Z469-1]	0.6	5
C=CC(=O)N1CCN2C(=O)c3c(N4C[C@@H](C(=O)O)CC4(C)C)nc(-c4c(O)cccc4F)c(Cl)c3OC[C@H]2C1 (single isomer, unassigned) [Z458-1]	> 1000	8.8
C=CC(=O)N1CCN2C(=O)c3c(N4C[C@@H](N(C)CCO)CC4(C)C)nc(-c4ccccc4F)c(Cl)c3OC[C@H]2C1 (single isomer, unassigned) [Z658-1]		23.8
C=CC(=O)N1CCN2C(=O)c3c(N4C[C@H](N5CCC5)CC4(C)C)nc(-c4ccccc4F)c(Cl)c3OC[C@H]2C1 (single isomer, unassigned) [Z471-2]		461
C=CC(=O)N1CCN2C(=O)c3c(N4CC[C@@H](N(C)C)C4(C)C)nc(-c4ccccc4F)c(Cl)c3OC[C@H]2C1 [Z502-1, (6aR)-8-acryloyl-4-chloro-1-(3-(dimethylamino)-2,2-dimethylpyrrolidin-1-yl)-3-(2-fluorophenyl)-6,6a,7,8,9,10-hexahydro-12H-pyrazino[2,1-c]pyrido[3,4-f][1,4]oxazepin-12(6aH)-one]		280
C=CC(=O)N1CCN2C(=O)c3c(N4CCN(C)[C@@H](C)[C@H]4C)nc(-c4ccccc4F)c(Cl)c3OC[C@H]2C1 (single isomer, unassigned) [Z465-1]		144
C=CC(=O)N1CCN2C(=O)c3c(N4C[C@@H](N5CCN(C)CC5)CC4(C)C)nc(-c4c(F)cccc4Cl)c(Cl)c3OC[C@H]2C1 (single isomer, unassigned) [Z635-1]		22.7
C=CC(=O)N1CCN2C(=O)c3c(N4C[C@H](N5CCN(C)CC5)CC4(C)C)nc(-c4c(F)cccc4Cl)c(Cl)c3OC[C@H]2C1 (single isomer, unassigned) [Z635-2]		113

Second part, the compound after the results:

IC50 [1] [nM]	IC50 (KRAS G12C) [nM]	SMILES
522	133	C=CC(=O)N1CCN2C(=O)c3c(NC(C)(C)C)nc(-c4ccccc4F)c(Cl)c3OC[C@H]2C1 [Z457, (R)-8-acryloyl-1-(tert-butylamino)-4-chloro-3-(2-fluorophenyl)-6,6a,7,8,9,10-hexahydro-12H-pyrazino[2,1-c]pyrido[3,4-f][1,4]oxazepin-12-one]
7	66	C=CC(=O)N1CCN2C(=O)c3c(N4CCC[C@@H]4C)nc(-c4c(O)cccc4F)c(Cl)c3OC[C@H]2C1 [Z49, (6aR)-8-acryloyl-1-((S)-2-methylpyrrolidin-1-yl)-4-chloro-3-(2-fluoro-6-hydroxyphenyl)-6,6a,7,8,9,10-hexahydro-12H-pyrazino[2,1-c]pyrido[3,4-f][1,4]oxazepin-12-one]
11.2	28.4	C=CC(=O)N1CCN2C(=O)c3c(N4CC(N(C)CCO)CC4(C)C)nc(-c4ccccc4F)c(Cl)c3OC[C@H]2C1 (stereo partly drawn) [Z658, (6aR)-8-acryloyl-4-chloro-3-(2-fluorophenyl)-1-(4-((2-hydroxyethyl)(methyl)amino)-2,2-dimethylpyrrolidin-1-yl)-6,6a,7,8,9,10-hexahydro-12H-pyrazino[2,1-c]pyrido[3,4-f][1,4]oxazepin-12-one]
7	15	C=CC(=O)N1CCN2C(=O)c3c(N4C[C@@H](N(C)CC(F)(F)F)CC4(C)C)nc(-c4ccccc4F)c(Cl)c3OC[C@H]2C1 (single isomer, unassigned) [Z491]
34	171	C=CC(=O)N1CCN2C(=O)c3c(OC4CCCN(C)C4)nc(-c4c(O)cccc4F)c(Cl)c3OC[C@H]2C1 (stereo partly drawn) [Z43, (6aR)-8-acryloyl-4-chloro-3-(2-fluoro-6-hydroxyphenyl)-1-((1-methylpiperidin-3-yl)oxy)-6,6a,7,8,9,10-hexahydro-12H-pyrazino[2,1-c]pyrido[3,4-f][1,4]oxazepin-12-one]
1	7.7	C=CC(=O)N1CCN2C(=O)c3c(N4CC(N5CCN(C)CC5)CC4(C)C)nc(-c4c(O)cccc4F)c(Cl)c3OC[C@H]2C1 (stereo partly drawn) [Z467, (6aR)-8-acryloyl-4-chloro-1-(2,2-dimethyl-4-(4-methylpiperazin-1-yl)pyrrolidin-1-yl)-3-(2-fluoro-6-hydroxyphenyl)-6,6a,7,8,9,10-hexahydro-12H-pyrazino[2,1-c]pyrido[3,4-f][1,4]oxazepin-12-one]
17	105	C=CC(=O)N1CCN2C(=O)c3c(N4CC(N5CCN(C)CC5)CC4(C)C)nc(-c4ccccc4F)c(F)c3OC[C@H]2C1 (stereo partly drawn) [Z474, (6aR)-8-acryloyl-1-(2,2-dimethyl-4-(4-methylpiperazin-1-yl)pyrrolidin-1-yl)-4-fluoro-3-(2-fluorophenyl)-6,6a,7,8,9,10-hexahydro-12H-pyrazino[2,1-c]pyrido[3,4-f][1,4]oxazepin-12-one]
33	331	C=CC(=O)N1CCN2C(=O)c3c(N4CCN(C)C[C@@H]4C)nc(-c4ccccc4Cl)c(Cl)c3OC[C@H]2C1 [Z461, (R)-8-acryloyl-4-chloro-3-(2-chlorophenyl)-1-((S)-2,4-dimethylpiperazin-1-yl)-6,6a,7,8,9,10-hexahydro-12H-pyrazino[2,1-c]pyrido[3,4-f][1,4]oxazepin-12-one]
2	21	C=CC(=O)N1CCN2C(=O)c3c(N4CC(O)CC4(C)C)nc(-c4c(O)cccc4F)c(Cl)c3OC[C@H]2C1 (stereo partly drawn) [Z50, (6aR)-8-amyloyl-4-chloro-3-(2-fluoro-6-hydroxyphenyl)-1-(4-hydroxy-2,2-dimethylpyrrolidin-1-yl)-6,6a,7,8,9,10-hexahydro-12H-pyrazino[2,1-c]pyrido[3,4-f][1,4]oxazepin-12-one]
	57	C=CC(=O)N1CCN2C(=O)c3c(N4CCN(C(=O)CC)C[C@@H]4C)nc(-c4ccccc4F)c(Cl)c3OC[C@H]2C1 [Z477, (R)-8-acryloyl-4-chloro-3-(2-fluorophenyl)-1-((S)-2-methyl-4-propionylpiperazin-1-yl)-6,6a,7,8,9,10-hexahydro-12H-pyrazino[2,1-c]pyrido[3,4-f][1,4]oxazepin-12(6aH)-one]
73		C=CC(=O)N1CCN2C(=O)c3c(NC45CC(C4)C5)nc(-c4c(O)cccc4F)c(Cl)c3OC[C@H]2C1 [Z41, (6aR)-8-acryloyl-1-(bicyclo [1.1.1]pentan-1-ylamino)-4-chloro-3-(2-fluoro-6-hydroxyphenyl)-6,6a,7,8,9,10-hexahydro-12H-pyrazino[2,1-c]pyrido[3,4-f][1,4]oxazepin-12-one]
20		C=CC(=O)N1CCN2C(=O)c3c(N4CCC5CC54)nc(-c4c(O)cccc4F)c(Cl)c3OC[C@H]2C1 (stereo partly drawn) [Z39, (6aR)-8-acryloyl-1-(2-azabicyclo[3.1.0]hexart-2-yl)-4-chloro-3-(2-fluoro-6-hydroxyphenyl)-6,6a,7,8,9,10-hexahydro-12H-pyrazino[2,1-c]pyrido[3,4-f][1,4]oxazepin-12-one]
